What all share (assay type): biochemical
One assay concerns the target NDM-1 (Klebsiella pneumoniae, UniProt C7C422). Put plainly: Inhibitory activity on MBL, fluorescent substrate FC-5.
The target in a further assay is NDM-5 (Klebsiella pneumoniae, UniProt C7C422, M154L/V88L). The assay is described as above.
The target in another assay is IMP-1 (Serratia marcescens, UniProt P52699). Described as above.
The target of the next assay is VIM-1 (Pseudomonas aeruginosa, UniProt A0A0F7KYQ8). The assay is described as above.
A further assay concerns the target VIM-2 (Escherichia coli, UniProt Q5U7L7). The assay is described as above. The conditions noted are these: read-out: Inhibitory activity on MBL VIM-2 (IC50 class).
The target of another assay is T1, SHV-12 (UniProt P0AD64, L31Q/G234S/E235K, species not given).
T1 sequence (P0AD64 1-286 L31Q/G234S/E235K): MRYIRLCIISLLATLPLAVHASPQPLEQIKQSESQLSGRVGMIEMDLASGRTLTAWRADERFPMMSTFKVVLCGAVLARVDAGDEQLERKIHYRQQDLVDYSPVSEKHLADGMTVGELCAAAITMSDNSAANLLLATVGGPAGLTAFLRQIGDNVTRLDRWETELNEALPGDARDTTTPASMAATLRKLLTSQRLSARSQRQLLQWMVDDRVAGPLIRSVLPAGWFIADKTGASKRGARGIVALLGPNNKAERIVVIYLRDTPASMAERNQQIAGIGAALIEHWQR
Put plainly: Inhibitory activity on SBL, fluorescent substrate FC-5. The conditions noted are these: read-out: Inhibitory activity on SBL SHV-12 (IC50 class).

For the next assay, the target named is CTX-M-14 (Escherichia coli, UniProt Q9L5C7). The assay is described as above. To be noted: for IC50: read-out: Inhibitory activity on SBL CTX-M-14 (IC50 class).
Chain of CTX-M-14 (Q9L5C7 entry or part of it): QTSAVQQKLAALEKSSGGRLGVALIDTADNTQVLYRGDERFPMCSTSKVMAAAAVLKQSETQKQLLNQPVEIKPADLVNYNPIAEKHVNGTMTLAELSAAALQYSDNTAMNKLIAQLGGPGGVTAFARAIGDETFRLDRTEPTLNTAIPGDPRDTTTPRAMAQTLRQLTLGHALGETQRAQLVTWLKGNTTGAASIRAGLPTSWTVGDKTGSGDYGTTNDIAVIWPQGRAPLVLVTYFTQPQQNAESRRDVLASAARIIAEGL
The next assay deals with KPC-2 (Klebsiella pneumoniae, UniProt Q9F663). The description is as above. To be noted: for IC50: read-out: Inhibitory activity on SBL KPC-2 (IC50 class).
Chain of KPC-2 (Q9F663 25-293 limits assumed): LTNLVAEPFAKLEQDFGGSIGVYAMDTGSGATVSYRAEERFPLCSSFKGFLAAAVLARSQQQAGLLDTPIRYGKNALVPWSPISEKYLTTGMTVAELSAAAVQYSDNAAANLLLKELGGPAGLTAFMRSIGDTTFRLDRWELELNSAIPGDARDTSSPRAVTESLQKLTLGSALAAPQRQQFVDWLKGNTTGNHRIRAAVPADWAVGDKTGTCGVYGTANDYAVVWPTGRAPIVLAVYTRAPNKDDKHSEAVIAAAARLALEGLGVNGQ
The target of a further assay is TEM-1 (Escherichia coli, UniProt P62593). The description is as above. The conditions noted are these: for IC50: read-out: Inhibitory activity on SBL TEM-1 (IC50 class).
Chain of TEM-1 (P62593 24-286 limits assumed): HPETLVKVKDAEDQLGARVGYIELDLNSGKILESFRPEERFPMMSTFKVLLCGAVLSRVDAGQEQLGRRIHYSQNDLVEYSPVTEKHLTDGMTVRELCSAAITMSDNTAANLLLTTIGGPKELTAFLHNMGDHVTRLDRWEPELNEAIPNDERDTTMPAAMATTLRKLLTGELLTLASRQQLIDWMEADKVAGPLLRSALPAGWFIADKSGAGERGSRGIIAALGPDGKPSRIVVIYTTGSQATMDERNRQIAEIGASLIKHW
The next assay has as its target OXA-48 (Klebsiella pneumoniae, UniProt Q6XEC0). The assay is described as above. To be noted: for IC50: read-out: Inhibitory activity on SBL OXA-48 (IC50 class).
The mark [1] stands for this setting: read-out: Inhibitory activity on MBL NDM-1 (IC50 class).
Where [2] appears, read: read-out: Inhibitory activity on MBL NDM-5 (IC50 class).
[3] abbreviates: read-out: Inhibitory activity on MBL IMP-1 (IC50 class).
[4] abbreviates: read-out: Inhibitory activity on MBL VIM-1 (IC50 class).
Where [5] appears, read: read-out: inhibitory activity at a nanomolar-level on NDM-1.
The mark [6] stands for this setting: read-out: inhibitory activity at a nanomolar-level on NDM-5.
[7] abbreviates: VIM-1 and/or VIM-2, read-out: inhibitory activity at a nanomolar-level on VIM-1 and/or VIM-2.

Where two headings read alike, the source gives them in different places. Some results are limits rather than exact numbers.

Chain of NDM-1 (C7C422 29-270 limits assumed): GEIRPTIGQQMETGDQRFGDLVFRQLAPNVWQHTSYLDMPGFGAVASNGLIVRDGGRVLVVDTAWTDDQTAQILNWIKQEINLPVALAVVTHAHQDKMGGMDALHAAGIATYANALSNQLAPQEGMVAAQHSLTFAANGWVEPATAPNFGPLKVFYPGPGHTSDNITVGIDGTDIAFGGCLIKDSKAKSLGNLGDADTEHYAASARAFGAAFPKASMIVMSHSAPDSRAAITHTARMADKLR
Chain of IMP-1 (P52699 19-246 limits assumed): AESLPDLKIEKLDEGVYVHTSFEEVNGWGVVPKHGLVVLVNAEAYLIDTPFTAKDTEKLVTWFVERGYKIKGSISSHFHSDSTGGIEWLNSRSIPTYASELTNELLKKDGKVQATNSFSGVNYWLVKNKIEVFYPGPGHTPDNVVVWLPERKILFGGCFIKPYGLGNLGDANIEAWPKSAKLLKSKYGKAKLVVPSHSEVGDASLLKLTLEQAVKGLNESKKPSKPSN
Chain of NDM-5 (C7C422 29-270 V88L/M154L): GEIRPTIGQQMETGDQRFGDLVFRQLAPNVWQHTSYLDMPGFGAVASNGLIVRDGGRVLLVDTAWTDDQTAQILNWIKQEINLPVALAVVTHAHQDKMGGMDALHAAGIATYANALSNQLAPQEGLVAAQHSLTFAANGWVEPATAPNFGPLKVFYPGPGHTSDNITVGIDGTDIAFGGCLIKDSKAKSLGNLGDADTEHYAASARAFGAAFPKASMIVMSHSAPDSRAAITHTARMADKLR
Chain of OXA-48 (Q6XEC0 23-265 limits assumed): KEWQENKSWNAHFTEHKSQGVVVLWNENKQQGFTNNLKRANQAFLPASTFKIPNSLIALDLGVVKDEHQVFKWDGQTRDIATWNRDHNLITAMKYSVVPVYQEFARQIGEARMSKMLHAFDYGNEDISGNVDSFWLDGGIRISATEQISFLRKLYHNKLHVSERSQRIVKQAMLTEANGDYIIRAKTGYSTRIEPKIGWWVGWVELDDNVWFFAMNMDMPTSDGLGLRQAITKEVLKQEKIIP

For `NC(=O)[C@@H]1CC[C@@H]2CN1C(=O)N2OS(=O)(=O)O` [Avibactam, reference compound], the IC50 is over 100 µM on NDM-1 (setting [1]); over 100 µM at NDM-5 (setting [2]); over 100 µM at IMP-1 (setting [3]); over 100 µM on VIM-1 (setting [4]); over 100 µM at VIM-2; under 0.01 µM at SHV-12. Moreover, the IC50 on CTX-M-14 is under 0.01 µM.

Turning to `O=C(O)c1c(Cn2nccn2)ccc2c1OB(O)CC2` [Compound 1], the IC50 on NDM-1 (setting [1]) is 0.01 to 1 µM; on NDM-1 (setting [5]) it was under 1 µM; at NDM-5 (setting [2]), 0.01 to 1 µM; at NDM-5 (setting [6]) it was under 1 µM; at IMP-1 (setting [3]), 1 to 100 µM; at VIM-1 (setting [7]), under 1 µM. Besides, the IC50 at VIM-1 (setting [4]) is 1 to 100 µM; at VIM-2, 0.01 to 1 µM; at KPC-2, under 0.01 µM; at TEM-1, 0.01 to 1 µM; on SHV-12 it was 0.01 to 1 µM; on CTX-M-14, 0.01 to 1 µM. In addition, the IC50 on OXA-48 was under 0.01 µM.

On to `O=C(O)c1c(Cn2ccnn2)ccc2c1OB(O)CC2` [Compound 2], for which the IC50 at NDM-1 (setting [1]) is 0.01 to 1 µM; at NDM-1 (setting [5]) it was under 1 µM; on NDM-5 (setting [2]), 0.01 to 1 µM; on NDM-5 (setting [6]), under 1 µM; at IMP-1 (setting [3]), 1 to 100 µM; on VIM-1 (setting [7]) it was under 1 µM. The IC50 is 1 to 100 µM at VIM-1 (setting [4]); 0.01 to 1 µM on VIM-2; under 0.01 µM at KPC-2; 0.01 to 1 µM on TEM-1; 0.01 to 1 µM on SHV-12; 0.01 to 1 µM at CTX-M-14. The IC50 at OXA-48 lay in the range of 0.01 to 1 µM.

In the case of `C[n+]1ccn(Cc2ccc3c(c2C(=O)O)OB(O)CC3)n1` [Compound 3], the IC50 was 0.01 to 1 µM on NDM-1 (setting [1]); under 1 µM on NDM-1 (setting [5]); 0.01 to 1 µM at NDM-5 (setting [2]); under 1 µM at NDM-5 (setting [6]); 1 to 100 µM at IMP-1 (setting [3]); under 1 µM at VIM-1 (setting [7]). Besides, the IC50 was 1 to 100 µM at VIM-1 (setting [4]); 0.01 to 1 µM on VIM-2; under 0.01 µM at KPC-2; 0.01 to 1 µM at TEM-1; 0.01 to 1 µM on SHV-12; 0.01 to 1 µM on CTX-M-14. The IC50 at OXA-48 lay within 0.01 to 1 µM.

Regarding `CCCc1cn(Cc2ccc3c(c2C(=O)O)OB(O)CC3)nn1` [Compound 4], the IC50 was 0.01 to 1 µM on NDM-1 (setting [1]); under 1 µM on NDM-1 (setting [5]); 0.01 to 1 µM on NDM-5 (setting [2]); under 1 µM at NDM-5 (setting [6]); under 1 µM at IMP-1 (IMP-1 and/or IMP-4, read-out: inhibitory activity at a nanomolar-level on IMP-1 and/or IMP-4); 0.01 to 1 µM on IMP-1 (setting [3]). For the same molecule, the IC50 at VIM-1 (setting [4]) is 1 to 100 µM; at VIM-2, 1 to 100 µM; at KPC-2, under 0.01 µM; at TEM-1, 0.01 to 1 µM; on SHV-12, 0.01 to 1 µM; at CTX-M-14, 0.01 to 1 µM. Further, on OXA-48, the IC50 lay within 0.01 to 1 µM.

As for `O=C(O)c1c(Cn2cc(CN3CCCC3)nn2)ccc2c1OB(O)CC2` [Compound 5], the IC50 at NDM-1 (setting [1]) was 1 to 100 µM; on NDM-5 (setting [2]), 0.01 to 1 µM; at IMP-1 (setting [3]), 1 to 100 µM; on VIM-1 (setting [7]), under 1 µM; on VIM-1 (setting [4]) it was 1 to 100 µM; on VIM-2, 0.01 to 1 µM. Moreover, the IC50 at KPC-2 is under 0.01 µM; on TEM-1, 0.01 to 1 µM; at SHV-12, 0.01 to 1 µM; on CTX-M-14, 0.01 to 1 µM; at OXA-48, 0.01 to 1 µM.

As for `N#CCCCc1cn(Cc2ccc3c(c2C(=O)O)OB(O)CC3)nn1` [Compound 6], the IC50 at NDM-1 (setting [1]) was 1 to 100 µM; on NDM-5 (setting [2]) it was 0.01 to 1 µM; at IMP-1 (setting [3]) it was 1 to 100 µM; at VIM-1 (setting [7]), under 1 µM; at VIM-1 (setting [4]), 1 to 100 µM; on VIM-2, 0.01 to 1 µM. Further, the IC50 was under 0.01 µM on KPC-2; 0.01 to 1 µM on TEM-1; 0.01 to 1 µM on SHV-12; 0.01 to 1 µM at CTX-M-14; 0.01 to 1 µM on OXA-48.

`O=C(O)c1c(Cn2cncn2)ccc2c1OB(O)CC2` [Compound 13]: the IC50 is 0.01 to 1 µM at NDM-1 (setting [1]); under 1 µM at NDM-1 (setting [5]); 0.01 to 1 µM on NDM-5 (setting [2]); under 1 µM on NDM-5 (setting [6]); 1 to 100 µM at IMP-1 (setting [3]); under 1 µM on VIM-1 (setting [7]). The IC50 on VIM-1 (setting [4]) is 1 to 100 µM; on VIM-2, 0.01 to 1 µM; at KPC-2 it was under 0.01 µM; at TEM-1 it was 0.01 to 1 µM; on SHV-12, 0.01 to 1 µM; on CTX-M-14, under 0.01 µM. Also, the IC50 on OXA-48 is under 0.01 µM.

Turning to `O=C(O)c1c(Cn2cccn2)ccc2c1OB(O)CC2` [Compound 14], the IC50 on NDM-1 (setting [1]) is 0.01 to 1 µM; at NDM-1 (setting [5]), under 1 µM; on NDM-5 (setting [2]), 0.01 to 1 µM; at NDM-5 (setting [6]) it was under 1 µM; at IMP-1 (setting [3]) it was 1 to 100 µM; on VIM-1 (setting [7]), under 1 µM. In addition, the IC50 is 1 to 100 µM at VIM-1 (setting [4]); 0.01 to 1 µM on VIM-2; under 0.01 µM on KPC-2; 0.01 to 1 µM at TEM-1; 0.01 to 1 µM on SHV-12; under 0.01 µM at CTX-M-14. For the same molecule, the IC50 at OXA-48 was under 0.01 µM.

Regarding `O=C(O)c1c(Cn2cc(F)cn2)ccc2c1OB(O)CC2` [Compound 15], the IC50 at NDM-1 (setting [1]) was 0.01 to 1 µM; at NDM-1 (setting [5]) it was under 1 µM; at NDM-5 (setting [2]), 0.01 to 1 µM; at NDM-5 (setting [6]), under 1 µM; on IMP-1 (setting [3]), 1 to 100 µM; on VIM-1 (setting [7]), under 1 µM. The IC50 at VIM-1 (setting [4]) was 1 to 100 µM; at VIM-2 it was 0.01 to 1 µM; at KPC-2, under 0.01 µM; on TEM-1, 0.01 to 1 µM; at SHV-12 it was 0.01 to 1 µM; on CTX-M-14, 0.01 to 1 µM. Further, at OXA-48, the IC50 lay in the range of 0.01 to 1 µM.

With `O=C(O)c1c(Cn2cc(C(F)(F)F)cn2)ccc2c1OB(O)CC2` [Compound 16], the IC50 on NDM-1 (setting [1]) is 0.01 to 1 µM; on NDM-1 (setting [5]) it was under 1 µM; on NDM-5 (setting [2]) it was 0.01 to 1 µM; at NDM-5 (setting [6]) it was under 1 µM; at IMP-1 (setting [3]), 1 to 100 µM; on VIM-1 (setting [7]) it was under 1 µM. Besides, the IC50 at VIM-1 (setting [4]) is 1 to 100 µM; on VIM-2 it was 0.01 to 1 µM; on KPC-2 it was under 0.01 µM; at TEM-1 it was 0.01 to 1 µM; at SHV-12, 0.01 to 1 µM; on CTX-M-14, under 0.01 µM. Also, on OXA-48, the IC50 was under 0.01 µM.

Regarding `N#Cc1cnn(Cc2ccc3c(c2C(=O)O)OB(O)CC3)c1` [Compound 17], the IC50 was 0.01 to 1 µM on NDM-1 (setting [1]); under 1 µM at NDM-1 (setting [5]); 0.01 to 1 µM on NDM-5 (setting [2]); under 1 µM at NDM-5 (setting [6]); 1 to 100 µM at IMP-1 (setting [3]); under 1 µM on VIM-1 (setting [7]). Moreover, the IC50 on VIM-1 (setting [4]) was 1 to 100 µM; on VIM-2, 0.01 to 1 µM; at KPC-2, under 0.01 µM; at TEM-1, under 0.01 µM; on SHV-12 it was 0.01 to 1 µM; at CTX-M-14 it was 0.01 to 1 µM. On OXA-48, the IC50 is under 0.01 µM. Further, the “inhibitory activity on KPC-2 compared to avibactam” value at KPC-2 (comparison in words) is on record as “better or comparable”. Besides, at TEM-1 (comparison in words), the “inhibitory activity on TEM-1 compared to avibactam” value is on record as “better or comparable”. At CTX-M-14 (comparison in words), the “inhibitory activity on CTX-M-14 compared to avibactam” value is on record as “better or comparable”. For the same molecule, the “inhibitory activity on OXA-48 compared to avibactam” value at OXA-48 (comparison in words) is reported as “better or comparable”.

The values above are taken from patent publication US20250205259A1, “CLASS OF 7-((FIVE-MEMBERED HETEROCYCLIC)METHYL)-8-CARBOXYLIC ACID-BENZO CYCLIC BORATE DERIVATIVES AND USES THEREOF” (priority 2022, published 2025).
